The test system of this assay is SDF-1. As to the kind of experiment: Western blot of SDF-1 in hypoxia-reoxygenation treated cells pre-treated with pathway inhibitors. Conditions: pre-treatment 10 μM. The assay is classed as cell-based, human. The method, then: Western blot was also performed to examine the expression of SDF-1, G-CSF, CXCR4, and G-CSF-R in the above-described cells that were treated with hypoxia-reoxygenation. Briefly, cells were placed in a hypoxic chamber (Bug Box, Ruskinn Technology, UK) at 37° C. for 12 hours. The chamber was continuously flushed with 95% N2-5% CO2 to maintain a gas phase PO2 of <1 mmHg (OM-14 oxygen monitor; SensorMedics Corporation, Yorba Linda, Calif.). After each hypoxic treatment, the cells were returned to a 37° C. normoxic incubator (95% air-5% CO2) for different time durations (30 minutes, 1 hour, 4 hours, 12 hours, 24 hours, and 48 hours) of reoxygenation. Cell samples were then collected at each time point and stored at -80° C. For Western blot, the samples were lysed in a buffer containing 320 mM sucrose, 5 mM HEPES, 1 μg/ml leupeptin, 1 μg/ml aprotinin. The resulting lysate were centrifuged at 13,000 g for 15 minutes. The pellet was resuspended in a sample buffer (62.5 mM Tris-HCl, 10% glycerol, 2% SDS, 0.1% bromophenol blue, and 50 mM DTT) and subjected to SDS-polyacrylamide gel (4-12%) electrophoresis. […] The intensity of each detected band was quantified using a Kodak Digital Science 1D Image Analysis System (Eastman Kodak, Rochester, N.Y.). […]
A general note: A western blot detects proteins with antibodies after separation by electrophoresis.

Turning to `COc1cccc(-c2cc(=O)c3ccccc3o2)c1N` [PD98059], the “expression of SDF-1” value was “stayed at the control level”.

These data come from US8329166B2, “Pluripotent olfactory stem cells” (Academia Sinica, priority 2005, dated 2012).
